Results taken from the supplement of paper PMC11061612.

Tests used:
Test in all cases: Bliss excess, mean over the matrix (fraction); higher = more synergy
[1] = tested on: ESS-1 (Other Solid Carcinomas)
In short: (§1)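 Bliss excess equals the observed combination effect minus the expected value EA + EB − EA·EB, where EA and EB are the effects of each agent alone. Combination Emax is the second-highest inhibition within the matrix. Inhibition was scaled from CellTiter-Glo 2.0 luminescence, with 0 set by vehicle wells and 1 by blank wells, after 72 hours of two-drug dosing of cells plated in 1536-well plates.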

[2] = tested on: SW1573 (Lung Adenocarcinoma)
In short: as §1

[3] = tested on: WSU-NHL (B-Cell Non-Hodgkin's Lymphoma)
In short: as §1

[4] = tested on: BE-13 (T-Lymphoblastic Leukemia)
In short: as §1

MPP-89 (Mesothelioma) = tested on: MPP-89 (Mesothelioma)
In short: as §1

LOXIMVI (Melanoma) = tested on: LOXIMVI (Melanoma)
In short: as §1

[5] = tested on: SW1710 (Bladder Carcinoma)
In short: as §1

[6] = tested on: NCI-H524 (Small Cell Lung Carcinoma)
In short: as §1

[7] = tested on: OE21 (Esophageal Squamous Cell Carcinoma)
In short: as §1

KS-1 (Glioblastoma) = tested on: KS-1 (Glioblastoma)
In short: as §1

[8] = tested on: HuH-7 (Hepatocellular Carcinoma)
In short: as §1

[9] = tested on: CAL-33 (Oral Cavity Carcinoma)
In short: as §1

[10] = tested on: L-428 (Hodgkin's Lymphoma)
In short: as §1

[11] = tested on: LCLC-97TM1 (Non-Small Cell Lung Carcinoma)
In short: as §1

[12] = tested on: Hs-746T (Gastric Carcinoma)
In short: as §1

A673 (Ewing's Sarcoma) = tested on: A673 (Ewing's Sarcoma)
In short: as §1

[13] = tested on: OVCAR-5 (Ovarian Carcinoma)
In short: as §1

[14] = tested on: OV-56 (Ovarian Carcinoma)
In short: as §1

[15] = tested on: HuCCT1 (Biliary Tract Carcinoma)
In short: as §1

| SMILES | Bliss excess [1] | Bliss excess [2] | Bliss excess [3] | Bliss excess [4] | Bliss excess (MPP-89 (Mesothelioma)) | Bliss excess (LOXIMVI (Melanoma)) | Bliss excess [5] | Bliss excess [6] | Bliss excess [7] | Bliss excess (KS-1 (Glioblastoma)) | Bliss excess [8] | Bliss excess [9] | Bliss excess [10] | Bliss excess [11] | Bliss excess [12] | Bliss excess (A673 (Ewing's Sarcoma)) | Bliss excess [13] | Bliss excess [14] | Bliss excess [15] |
| --- | --- | --- | --- | --- | --- | --- | --- | --- | --- | --- | --- | --- | --- | --- | --- | --- | --- | --- | --- |
| C=CCn1c(=O)c2cnc(Nc3ccc(N4CCN(C)CC4)cc3)nc2n1-c1cccc(C(C)(C)O)n1 [AZD1775] + C1CN(CCC1(C(=O)N[C@@H](CCO)C2=CC=C(C=C2)Cl)N)C3=NC=NC4=C3C=CN4 [Capivasertib] (first compound max 3 µM, partner max 3 µM) | -0.0251 | -0.0229 | -0.0271 | -0.0508 | -0.0704 | 0.0764 | 0.0334 | -0.0075 | -0.0253 | -0.0126 | 0.0263 | 0.066 | -0.0138 | -0.0545 | 0.031 | 0.018 | -0.0923 | -0.0263 |  |
| O=C(c1cc(Cc2n[nH]c(=O)c3ccccc23)ccc1F)N1CCN(C(=O)C2CC2)CC1 [Olaparib] + CC1(C)CCC(CN2CCN(c3ccc(C(=O)NS(=O)(=O)c4ccc(NCC5CCOCC5)c([N+](=O)[O-])c4)c(Oc4cnc5[nH]ccc5c4)c3)CC2)=C(c2ccc(Cl)cc2)C1 [Venetoclax] (first compound max 10 µM, 7x7, partner max 1 µM) | -0.0103 |  | 0.0238 | -0.0238 | -0.0605 | 0.0029 | -0.0606 | -0.0173 |  | -0.0442 |  |  |  |  |  | 0.0169 | -0.061 |  | -0.0478 |
| CN(CCO)CC[C@H](CSc1ccccc1)Nc1ccc(S(=O)(=O)NC(=O)c2ccc(N3CCC([C@@H](O)c4ccccc4-c4ccc(Cl)cc4)CC3)cc2)cc1S(=O)(=O)C(F)(F)F [AZD4320] + CS(=O)(=O)CCNCc1ccc(-c2ccc3ncnc(Nc4ccc(OCc5cccc(F)c5)c(Cl)c4)c3c2)o1 [Lapatinib] (first compound max 1 µM, 7x7, partner max 10 µM) | 0.0668 |  | 0.0183 | 0.0292 | 0.0479 | 0.0113 | -0.0324 | 0.0798 |  | 0.0137 |  |  |  |  |  | 0.0505 | -0.0031 |  | -0.0052 |
| C[C@@H]1COCCN1c1cc(C2([S@](C)(=N)=O)CC2)nc(-c2ccnc3[nH]ccc23)n1 [AZD6738] + Nc1ccn([C@@H]2O[C@H](CO)[C@@H](O)C2(F)F)c(=O)n1 [Gemcitabine] (first compound max 10 µM, 7x7, partner max 0.3 µM) | 0.0734 |  | 0.014 | 0.153 | 0.0348 | 0.0221 | 0.0769 | 0.0064 |  | 0.0043 |  |  |  |  |  | 0.0144 | -0.0407 |  | 0.0144 |
| Cc1nc(-c2cn3c(n2)-c2ccc(-c4cnn(C(C)(C)C(N)=O)c4)cc2OCC3)n(C(C)C)n1 [Taselisib] + O=C(Nc1ccc2[nH]nc(-c3ccncc3)c2c1)[C@@H]1CCN(CC(=O)N2CCN(c3ccc(-c4ncccn4)cc3)CC2)C1 [SCH772984] (first compound max 10 µM, 7x7, partner max 5 µM) | 0.0682 |  | 0.037 | -0.0347 | 0.0373 | 0.091 | -0.0048 | 0.0464 |  | 0.0097 |  |  |  |  |  | 0.131 | 0.0022 |  | 0.072 |
| CS(=O)(=O)CCNCc1ccc(-c2ccc3ncnc(Nc4ccc(OCc5cccc(F)c5)c(Cl)c4)c3c2)o1 [Lapatinib] + Cn1cnc2c(F)c(Nc3ccc(Br)cc3Cl)c(C(=O)NOCCO)cc21 [Selumetinib] (first compound max 10 µM, 7x7, partner max 10 µM) | -0.0075 |  | -0.0093 | -0.0253 | -0.0065 | -0.0701 | -0.0077 | -0.0534 |  | -0.0387 |  |  |  |  |  | -0.039 | -0.0161 |  | 0.0208 |
| CCc1c2c(nc3ccc(O)cc13)-c1cc3c(c(=O)n1C2)COC(=O)[C@]3(O)CC [SN-38] + O=C(c1cc(Cc2n[nH]c(=O)c3ccccc23)ccc1F)N1CCN(C(=O)C2CC2)CC1 [Olaparib] (first compound max 0.3 µM, 7x7, partner max 10 µM) | 0.0735 |  | 0.044 | 0.0503 | 0.0504 | 0.0214 | 0.037 | 0.0488 | -0.0198 | 0.0068 |  | 0.0519 | 0.0367 |  |  | 0.0875 | -0.0161 |  | 0.0046 |
| CS(=O)(=O)CCNCc1ccc(-c2ccc3ncnc(Nc4ccc(OCc5cccc(F)c5)c(Cl)c4)c3c2)o1 [Lapatinib] + NC1(c2ccc(-c3nc4ccn5c(=O)[nH]nc5c4cc3-c3ccccc3)cc2)CCC1 [MK-2206] (first compound max 10 µM, 7x7, partner max 10 µM) | 0.005 |  | -0.0237 | -0.0842 | -0.0391 | 0.043 | -0.0417 | 0.0223 |  | -0.0185 |  |  |  |  |  | -0.064 | -0.0101 |  | -0.018 |
